{"source": "patent US20210379068A1", "about": "“METHODS AND MATERIALS FOR TREATING NEUROPSYCHIATRIC DISORDERS” (Mayo Foundation for Medical Education and Research, priority 2018, published 2021)", "assay_type_in_all_cases": "in vivo, mouse", "key": {"INK-ATTAC;db/db mice": {"tested_on": "INK-ATTAC;db/db mice", "experiment": "Open field test, INK-ATTAC;db/db mice treated with AP20187", "settings": "AP20187 vs vehicle, 2 months", "method": "(§1) INK-ATTAC mice were injected intraperitoneally (i.p.) with AP20187 (10 mg/kg) or vehicle for 3 days every 2 weeks for a total of 8-10 weeks.\n(§2) Locomotor activity and anxiety-like behavior of mice were assessed in sound-insulated, rectangular activity chambers (Med Associates Inc., St Albans, Vt., USA: W×L×D=27 cm×27 cm×20 cm with continually running fans, infrared lasers, and sensors). Beam breaks were assessed in 2-minute bins over 30 minutes, converted automatically to current mouse location and distance travelled (cm), and recorded on a computer with Med-PC software Version 4.0. Before the test, mice were acclimatized to the room for 1-1.5 hours before being introduced into the chambers. Mice were habituated for 5 minutes in the Open Field chamber (without recording) then placed for another 5 minutes in the home cage. Afterwards, mice were introduced back to the chambers and all mouse movements were recorded for 30 minutes. Anxiety was quantified by the distance mice travelled in the central 25% of the chamber (zone 1) as a function of the total distance mice travelled and by frequencies of entries into zone 1."}, "HFD-fed INK-ATTAC mice [1]": {"tested_on": "HFD-fed INK-ATTAC mice", "experiment": "Elevated plus maze, chow/HFD INK-ATTAC mice treated with AP20187", "settings": "INK-ATTAC mice on HFD; AP20187 10 mg/kg i.p. vs vehicle", "method": "as §1\nA grey colored elevated plus maze apparatus was used. Two open arms (25×5 cm) and two closed arms (25×5 cm) were attached at right angles to a central platform (5×5 cm). The apparatus was set 40 cm above the floor. Mice were first acclimatized to the room for 1-1.5 hours. Mice were then placed individually on the central platform with their back to one of the open arms. Before the test, mice were habituated for 1 minute to the maze, then placed back in the home cage for 5 minutes. Mice were tested for 5 minutes during which they could freely explore the apparatus. Tracking software (Ethovision) recognizes mouse head, central body point, and the base of the tail. Anxiety was quantified by frequency of and time spent during head pokes/dips toward open arms. Higher anxiety is indicated by a lower frequency of movement into open arms and less time spent there."}, "HFD-fed INK-ATTAC mice [2]": {"tested_on": "HFD-fed INK-ATTAC mice", "experiment": "Open field test, chow/HFD INK-ATTAC mice treated with AP20187", "method": "as §1, §2"}, "brain cell populations": {"tested_on": "brain cell populations", "experiment": "CyTOF of brain cell populations, INK-ATTAC mice", "settings": "AP vs vehicle", "method": "as §1\nThis technique uniquely combines time-of-flight mass spectrometry with metal-labelling technology to enable detection of up to 40 protein targets per cell. A panel of antibodies based on surface markers, transcription factors, and cytokines (see Table 1) was designed for brain mass cytometry/cytometry by time of flight (CyTOF). Each antibody was tagged with a rare metal isotope and its function verified by mass cytometry according to the factory manual (Multi Metal labelling Kits, Fluidigm, CA). A CyTOF-2 mass cytometer (Fluidigm, South San Francisco, Calif.) was used for data acquisition. Acquired data were normalized based on normalization beads (Ce140, Eu151, Eu153, Ho165, and Lu175). A single brain hemisphere was dissociated into a single-cell suspension using brain tissue dissociation kits (Adult Brain Dissociation Kit, Miltenyi Biotec Inc., CA). Collected cells were incubated with metal-conjugated antibodies and, for testing intracellular proteins, including transcription factors and cytokines, fixation and permeabilization was conducted according to the manufacturer's instructions (Transcription Factor Staining Buffer Set, eBioscience, San Diego, Calif.). CyTOF data were analyzed by Cytobank (Santa Clara, Calif.)."}, "[3]": {"settings": "INK-ATTAC mice on HFD, AP20187 10 mg/kg i.p. 3 days every 2 weeks, 8-10 weeks, vs vehicle"}}, "note": "“Also recorded” adds a separate entry of the source.", "data": [{"smiles": "CC[C@H](C(=O)N1CCCC[C@H]1C(=O)O[C@H](CCc1ccc(OC)c(OC)c1)c1cccc(OCC(=O)NCC(CNC(=O)COc2cccc([C@@H](CCc3ccc(OC)c(OC)c3)OC(=O)[C@@H]3CCCCN3C(=O)[C@@H](CC)c3cc(OC)c(OC)c(OC)c3)c2)CN(C)C)c1)c1cc(OC)c(OC)c(OC)c1", "note": "[AP]", "values": [{"measurement": "anxiety-like behavior: distance travelled in the central area, open field", "setting": "INK-ATTAC;db/db mice", "value": "significantly reduced anxiety-like behavior"}, {"measurement": "number of entries into the central area, open field", "setting": "INK-ATTAC;db/db mice", "value": "not significantly increased"}, {"measurement": "total distance travelled (activity), 30 minute open field", "setting": "INK-ATTAC;db/db mice", "value": "not affected; also recorded: did not alter"}, {"measurement": "anxiety-like behavior: distance travelled in the central area, open field", "setting": "INK-ATTAC;db/db mice; listed as AP20187", "value": "significant difference"}, {"measurement": "anxiety-like phenotype: frequency of head entries/pokes into the open arms, EPM", "setting": "HFD-fed INK-ATTAC mice [1]", "value": "increased; also recorded: significantly decreased the anxiety-like phenotype"}, {"measurement": "time mice spent with their heads in open area, EPM", "setting": "HFD-fed INK-ATTAC mice [1]", "value": "increased"}, {"measurement": "anxiety-like behavior: distance travelled in the central zone (as function of total distance), open field", "setting": "HFD-fed INK-ATTAC mice [2]; [3]", "value": "alleviated; also recorded: reduced HFD-induced anxiety-like behavior"}, {"measurement": "anxiety-like behavior: entries into the central zone, open field", "setting": "HFD-fed INK-ATTAC mice [2]; [3]", "value": "alleviated; also recorded: reduced HFD-induced anxiety-like behavior"}, {"measurement": "total distance travelled, open field", "setting": "HFD-fed INK-ATTAC mice [2]; INK-ATTAC mice, AP20187 10 mg/kg i.p. vs vehicle", "value": "did not affect"}, {"measurement": "open field parameters (central distance, entries) in chow-fed mice", "setting": "HFD-fed INK-ATTAC mice [2]; chow-fed INK-ATTAC mice, AP20187 10 mg/kg i.p. vs vehicle", "value": "did not affect"}, {"measurement": "ependymal cells (CD133+), CyTOF", "setting": "brain cell populations; HFD INK-ATTAC mice", "value": "significantly increased; also recorded: replenish"}, {"measurement": "immature neurons (Dcx+), CyTOF", "setting": "brain cell populations; HFD INK-ATTAC mice", "value": "significantly increased; also recorded: partial recovery"}, {"measurement": "neuronal precursor cells (Nestin+), CyTOF", "setting": "brain cell populations; HFD INK-ATTAC mice", "value": "replenish; also recorded: significantly increased"}, {"measurement": "frequency of endothelial cells (CD146+), CyTOF", "setting": "brain cell populations; INK-ATTAC mice", "value": "did not alter"}, {"measurement": "frequency of mature neurons (NeuN+), CyTOF", "setting": "brain cell populations; INK-ATTAC mice", "value": "did not alter"}, {"measurement": "frequency of microglia (CD11b+, CD45-), CyTOF", "setting": "brain cell populations; INK-ATTAC mice", "value": "did not alter"}, {"measurement": "frequency of oligodendrocytes (CNPase+ or OSP+), CyTOF", "setting": "brain cell populations; INK-ATTAC mice", "value": "did not alter"}]}]}
